Molecules are shown by their SMILES. Active and inactive are the calls of the source. The rule behind the calls is not given here. Where only a bound is given, the exact number is not on record here.

Data on one compound can be found in ChEMBL document CHEMBL1240489, “Discovery of N-{1-[3-(3-oxo-2,3-dihydrobenzo[1,4]oxazin-4-yl)propyl]piperidin-4-yl}-2-phenylacetamide (Lu AE51090): an allosteric muscarinic M1 receptor agonist with unprecedented selectivity and procognitive potential” (J Med Chem, 2010).

In series [1] the target is T1, Muscarinic acetylcholine receptor M5 (Homo sapiens, UniProt P08912).
T1 sequence (P08912 whole entry): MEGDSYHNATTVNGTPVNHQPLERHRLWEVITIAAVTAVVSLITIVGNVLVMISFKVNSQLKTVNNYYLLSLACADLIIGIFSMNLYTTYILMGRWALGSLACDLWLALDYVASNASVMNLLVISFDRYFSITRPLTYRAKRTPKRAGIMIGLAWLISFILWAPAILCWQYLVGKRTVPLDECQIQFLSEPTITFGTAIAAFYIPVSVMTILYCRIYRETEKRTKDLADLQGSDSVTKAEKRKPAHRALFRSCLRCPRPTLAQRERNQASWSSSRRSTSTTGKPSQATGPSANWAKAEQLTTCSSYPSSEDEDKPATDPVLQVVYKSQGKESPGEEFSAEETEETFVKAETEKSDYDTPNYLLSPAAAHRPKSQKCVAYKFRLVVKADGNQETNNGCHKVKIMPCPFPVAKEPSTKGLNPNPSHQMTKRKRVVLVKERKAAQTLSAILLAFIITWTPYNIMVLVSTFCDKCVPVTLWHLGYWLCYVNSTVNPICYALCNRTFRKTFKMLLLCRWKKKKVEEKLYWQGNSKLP
The series is described as follows: biochemical.
Description: Displacement of [3H]-4-DAMP from human muscarinic M5 receptor expressed in BHK-21 cells

The nature of series [2]: Volume of distribution at steady state in rat plasma at 1 mg/kg, iv and 2 mg/kg, po. It counts as ADME, organism-based. To be noted: read-out: Vdss.
Series [3] in a line: Ratio of brain to plasma AUC in Sprague-Dawley rat at 10 mg/kg, sc. The class given is ADME, organism-based. On the set-up: dose 10 mg/kg, route subcutaneous.
The target of series [4] is Mitogen-activated protein kinase 14 (Homo sapiens, UniProt Q16539). The experiment in a line: Binding affinity to p38alpha by enzyme assay.
Sequence of Mitogen-activated protein kinase 14 (Q16539 whole entry): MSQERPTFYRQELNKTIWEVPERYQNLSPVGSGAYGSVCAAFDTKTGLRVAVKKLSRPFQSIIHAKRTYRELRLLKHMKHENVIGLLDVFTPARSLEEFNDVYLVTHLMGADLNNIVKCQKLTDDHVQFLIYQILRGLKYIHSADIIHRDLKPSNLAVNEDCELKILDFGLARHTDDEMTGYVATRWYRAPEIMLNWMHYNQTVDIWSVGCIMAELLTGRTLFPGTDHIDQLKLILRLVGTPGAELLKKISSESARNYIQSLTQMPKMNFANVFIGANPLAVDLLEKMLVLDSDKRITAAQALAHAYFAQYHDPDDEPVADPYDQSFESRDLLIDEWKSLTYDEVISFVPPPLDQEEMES
For series [5], the target named is Glucocorticoid receptor (Homo sapiens, UniProt P04150). The series is described as follows: Binding affinity to human glucocorticoid receptor by radioligand displacement assay. (In a radioligand displacement assay an active substance lowers the binding of a labelled ligand.)
Sequence of Glucocorticoid receptor (P04150 whole entry): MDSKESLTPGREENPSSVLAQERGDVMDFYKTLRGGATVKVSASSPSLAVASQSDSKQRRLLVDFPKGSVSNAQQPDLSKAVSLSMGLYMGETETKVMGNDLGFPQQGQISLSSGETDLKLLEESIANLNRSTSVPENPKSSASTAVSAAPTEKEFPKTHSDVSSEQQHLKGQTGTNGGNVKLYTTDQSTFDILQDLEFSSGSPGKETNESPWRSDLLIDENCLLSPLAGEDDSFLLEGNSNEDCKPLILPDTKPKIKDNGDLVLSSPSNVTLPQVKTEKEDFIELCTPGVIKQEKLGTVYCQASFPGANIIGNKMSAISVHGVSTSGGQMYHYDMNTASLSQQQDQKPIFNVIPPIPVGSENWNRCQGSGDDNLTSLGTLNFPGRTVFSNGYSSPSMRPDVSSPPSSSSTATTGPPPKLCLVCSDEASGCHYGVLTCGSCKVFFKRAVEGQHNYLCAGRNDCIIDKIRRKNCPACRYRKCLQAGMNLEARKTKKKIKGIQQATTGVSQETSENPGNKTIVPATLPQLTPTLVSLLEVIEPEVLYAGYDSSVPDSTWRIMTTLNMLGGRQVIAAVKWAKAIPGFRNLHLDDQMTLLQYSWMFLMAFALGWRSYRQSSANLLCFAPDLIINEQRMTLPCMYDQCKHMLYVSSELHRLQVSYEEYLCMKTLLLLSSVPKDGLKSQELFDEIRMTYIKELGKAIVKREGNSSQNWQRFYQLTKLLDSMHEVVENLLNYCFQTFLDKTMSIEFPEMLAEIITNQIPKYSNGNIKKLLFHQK
Series [6] relates to Mus musculus. The experiment in a line: Reversal of 60 seconds delay-induced memory decay in C57Bl/6J mouse assessed as positive alteration at 0.31 to […], sc for 1 week by Y-maze test. It counts as functional, organism-based.
The target of series [7] is Beta-2 adrenergic receptor (Homo sapiens, UniProt P07550). The series is described as follows: Binding affinity to adrenergic beta2 receptor by radioligand displacement assay.
Sequence of Beta-2 adrenergic receptor (P07550 whole entry): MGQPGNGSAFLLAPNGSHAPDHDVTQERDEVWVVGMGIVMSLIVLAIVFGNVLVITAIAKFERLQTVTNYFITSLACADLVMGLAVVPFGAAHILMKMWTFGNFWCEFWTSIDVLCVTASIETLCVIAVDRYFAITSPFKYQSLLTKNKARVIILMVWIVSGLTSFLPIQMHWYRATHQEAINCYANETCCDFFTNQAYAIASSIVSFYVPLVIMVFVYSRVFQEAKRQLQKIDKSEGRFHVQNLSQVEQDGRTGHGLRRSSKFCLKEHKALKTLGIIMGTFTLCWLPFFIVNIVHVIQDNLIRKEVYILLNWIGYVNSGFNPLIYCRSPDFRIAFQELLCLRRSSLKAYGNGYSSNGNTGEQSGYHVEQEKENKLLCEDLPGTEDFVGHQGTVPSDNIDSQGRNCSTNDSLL
Series [8] deals with Alpha-1A adrenergic receptor (Homo sapiens, UniProt P35348). The series is described as follows: Binding affinity to human adrenergic alpha1A receptor by radioligand displacement assay.
Sequence of Alpha-1A adrenergic receptor (P35348 whole entry): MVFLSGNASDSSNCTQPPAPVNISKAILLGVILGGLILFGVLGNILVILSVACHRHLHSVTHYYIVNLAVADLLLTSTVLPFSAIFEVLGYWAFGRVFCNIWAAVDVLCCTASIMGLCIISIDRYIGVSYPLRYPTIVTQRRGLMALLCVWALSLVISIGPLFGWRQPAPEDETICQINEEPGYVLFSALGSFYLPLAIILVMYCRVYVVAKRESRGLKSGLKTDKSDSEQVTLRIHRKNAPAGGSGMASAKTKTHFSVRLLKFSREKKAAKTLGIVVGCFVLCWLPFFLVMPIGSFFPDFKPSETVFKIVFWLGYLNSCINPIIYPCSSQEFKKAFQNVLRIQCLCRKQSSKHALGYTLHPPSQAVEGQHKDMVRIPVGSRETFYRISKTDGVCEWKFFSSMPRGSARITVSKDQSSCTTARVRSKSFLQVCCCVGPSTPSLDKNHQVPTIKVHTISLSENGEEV
Series [9] has as its target Urotensin-2 receptor (Homo sapiens) (UniProt Q9UKP6). The series is described as follows: Binding affinity to human UT1 receptor by radioligand displacement assay.

Sequence of Urotensin-2 receptor (Homo sapiens) (Q9UKP6 whole entry, looked up): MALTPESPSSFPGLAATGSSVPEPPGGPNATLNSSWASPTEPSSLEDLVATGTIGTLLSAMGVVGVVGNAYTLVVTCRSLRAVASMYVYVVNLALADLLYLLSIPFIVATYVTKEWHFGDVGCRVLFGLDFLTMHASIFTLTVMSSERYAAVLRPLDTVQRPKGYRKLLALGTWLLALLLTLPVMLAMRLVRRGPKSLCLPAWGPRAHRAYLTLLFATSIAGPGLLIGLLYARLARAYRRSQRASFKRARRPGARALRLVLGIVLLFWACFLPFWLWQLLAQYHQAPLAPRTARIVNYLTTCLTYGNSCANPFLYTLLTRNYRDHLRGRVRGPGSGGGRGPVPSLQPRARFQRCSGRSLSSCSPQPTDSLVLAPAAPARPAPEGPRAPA

Regarding `O=C(Cc1ccccc1)NC1CCN(CCCN2C(=O)COc3ccccc32)CC1`, the Ki is 8.9 µM in series [1]; ≥ 1 µM in [4]; ≥ 1 µM in series [5]; ≥ 1 µM in series [7]; 0.26 µM in series [8]; ≥ 1 µM in series [9]. Besides, the Vd in series [2] worked out at 4.8 L/kg. Besides, in [3], the Kp was 0.2. Also, in [6], the outcome was inactive.

In general, Ki refers to the dissociation constant of the complex between target and ligand, obtained from inhibition or displacement. Low readings indicate higher affinity, high ones lower affinity. The Kp is the ratio of the level in a tissue or fluid to that in plasma or blood.
